Consider eight compounds from patent publication US12686809B2, “Methods and formulations for treating oil-containing porous media for oil recovery” (UNIVERSITY OF WYOMING, priority 2020, dated 2026).

What all share (format): physicochemical
The nature of data set [1]: IFT between surfactant solutions and reservoir crude oil at ambient conditions (spinning drop). The settings on record: ~0.1 wt % in blank brine. As for the experimental part: Spinning drop method: The spinning drop method was utilized to measure ultra-low IFT values. The instrumentation included a KRÜSS Spinning Drop Tensiometer was employed and the spinning drop method was performed as follows. A crude oil droplet was launched from a capillary plug into a capillary tube filled with the surfactant solution. While the glass capillary tube was rotating, the software-controlled instrument measured the IFT between oil and brine by analyzing the drop shape which depends on the balance between interfacial and centrifugal forces. At low rotational speeds, the IFT is the dominating force and the droplet is spherical in shape. In this case the software uses Young-Laplace equation to calculate IFT. When the angular velocity is high, the droplet is elongated (length is at least 4 times the diameter) and Vonnegut's equation is used to calculate the IFT.
(§1) Measurement of the IFT between surfactant solutions/reservoir oil at ambient conditions were first performed to, e.g., examine the impact of the hydrophobic chain length on the interfacial properties of cationic surfactants. For these measurements, a KRÜSS Spinning Drop Tensiometer was used.

Data set [2] is described as follows: Density difference between surfactant solution and crude oil. The settings on record: ~0.1 wt % in blank brine vs reservoir crude oil; ambient conditions. How it is done: Density: The density of the two phases (oil and brine; or oil and surfactant solution) was measured at atmospheric pressure and 22° C. using a DMA45 density meter from Anton Paar. The density of the two phases was also measured at reservoir conditions (120° C., 6000 psi) using an in-line density meter (DMA HPM, Anton Paar).
as §1

A short description of data set [3]: Critical micelle concentration by surface tension (pendant drop) at ambient conditions. The settings on record: surface tension against air. How it is done:
Pendant drop method: The pendant drop method was mainly utilized when the density of the suspended phase is higher than that of the bulk phase. The same device as that used in the captive/rising bubble method is used for the pendant drop method. The method consists of a drop suspended from a needle to determine interfacial and surface tension of liquid/liquid and liquid/gas systems. The critical micelle concentration (CMC) of cationic surfactants was measured using surface tension measurements between the surfactant solutions and air at ambient conditions. […] Therefore, generally, the measurements were performed at a concentration above CMC (about 0.1 wt %), which is the one typically used in the field.
CMC measurements were performed to, e.g., investigate the effect of the hydrophobic chain length on the behavior of cationic surfactant molecules at the interface. […] As a baseline, the surface tension of blank brine was measured to be about 75.4 mN/m.
FIGS. 18A-18C show exemplary data for CMC measurements of surfactants with chloride heads and various alkyl chain lengths and depicting the variations of surface tension with concentration. Specifically, FIGS. 18A, 18B, and 18C show exemplary surface tension data for DTAC, CTAC, and TSAC.

Data set [4] can be described thus: Krafft and cloud point temperatures / solution cloudiness at ambient conditions. The note with it: about 0.1 wt % in blank brine; for solution clarity/cloudiness (in words): about 22° C., ambient conditions. As for the experimental part:
Krafft and cloud point temperatures at ambient conditions: At ambient conditions, the Krafft point and cloud point temperatures were determined as follows. Fresh brine solutions containing about 0.1 wt % of surfactant solution were prepared and poured into 25 ml glass vials. The vials were capped and placed upright in a water bath and/or heater at an initial temperature of about 22° C. […] For each increment, it typically took at least 20 minutes for the brine to reach thermal equilibrium (temperature stabilization) with the water bath. The cloud and Krafft points were determined visually by recording the temperatures at which cloudiness was observed or disappeared. Images of the brine solutions were captured after each temperature stabilization.
The effect of the hydrophobic (alkyl) chain length on the stability and aqueous solubility/cloudiness of cationic surfactants was examined by measuring Krafft points at elevated pressure and temperature were performed. FIG. 15 is a series of exemplary images of solutions of cationic surfactants having a bromide head with increasing carbon atom numbers from left to right—DTAB (left panel), CTAB (center panel), and TODAB (right panel). For these tests, each surfactant was made into a surfactant solution (about 0.1 wt % in blank brine). The images were captured at about 22° C.
(left panel) and about 75° C. (right panel).
(§2) The cloud points of certain nonionic surfactants were measured at high pressure (about 6,000 psi) and temperature. […] (center panel) and about 99.9° C. (right panel), at a pressure of about 6,000 psi.

The nature of data set [5]: Microemulsion phase behavior of surfactant solution/crude oil. The note with it: for phase behavior (in words): about 0.1 wt % in blank brine/crude oil 1:1, about 80° C. versus ambient; for volume of surfactant phase formed between oil and brine: about 80° C. How it is done: Microemulsion phase behavior: The microemulsion phase behavior of surfactants with different structures was investigated with respect to temperature. The effect of surfactant hydrophobic chain length on phase behavior was examined at ambient temperature (about 22° C.) and at elevated temperature (about 80° C.). For these experiments, glass pipettes were filled with brine/crude oil at a ratio of about 1:1 or surfactant solution/crude oil at a ratio of about 1:1. The pipettes were then sealed with a torch and shaken at the speed of about 250 rpm for about 24 hours (h). The pipettes were then monitored for several days and images were recorded.
Microemulsion phase behavior tests can generally be utilized to characterize surfactant stability. The phase behavior of surfactants can depend on distinct parameters such as temperature, surfactant concentration, and/or brine salinity. The effect of temperature on phase behavior was systematically investigated for various surfactants. Here, the phase behavior test was first performed on a pipette containing blank brine and the crude oil.
FIG. 13 is a series of exemplary images showing the phase behavior of cationic surfactants with a chloride head—TOAC, DTAC, CTAC, and TSAC—at ambient temperatures (left panel) and at about 80° C. (right panel). FIG. 14 is each a series of exemplary images showing the phase behavior of cationic surfactants with a bromide head—TOAB, DTAB, CTAB, and TODAB—at ambient temperatures (left panel) and at about 80° C. (right panel). For these tests, each surfactant was made into a surfactant solution (about 0.1 wt % in blank brine).

A short description of data set [6]: IFT between surfactant solutions and reservoir oil at reservoir conditions. The note with it: about 100° C. and about 1,000 psi. How it is done:
Captive/rising bubble method: The captive/rising bubble method was utilized to measure the dynamic IFT and contact angle at reservoir conditions. This method was performed as follows. The lighter phase was injected through a needle to form a bubble inside the heavier phase. The IFT between the two phases was calculated from the shape of the bubble using the Young-Laplace equation through Axisymmetric Drop Shape Analysis (ADSA). The state-of-the-art interfacial tension and contact angle (IFT/CA) apparatus adopted for the measurements is described and used by S. Saraji et al., Wettability of Supercritical Carbon Dioxide/Water/Quartz Systems: Simultaneous Measurement of Contact Angle and Interfacial Tension at Reservoir Conditions, Langmuir, 29 (2013) 6856-6866. This experimental setup can operate at elevated temperature (up to 200° C.) and pressure (up to 8000 psi). […] For contact angle measurement, a droplet was injected from the needle onto the solid substrate and monitored by capturing several images with time and analyzing them using ImageJ software.
Pendant drop method: The pendant drop method was mainly utilized when the density of the suspended phase is higher than that of the bulk phase. […] The critical micelle concentration (CMC) of cationic surfactants was measured using surface tension measurements between the surfactant solutions and air at ambient conditions. […]

Data set [7] is described as follows: Krafft and cloud point temperatures at reservoir conditions (IFT cell, 6,000 psi). The settings on record: about 0.1 wt % in blank brine; about 6,000 psi. How it is done:
as §2
(right panel), at a pressure of about 6,000 psi.

On to `CCCCCCCCCCCCCCCC[N+](C)(C)C.[Br-]` [CTAB, Hexadecyltrimethylammonium bromide], for which the “γ (interfacial tension surfactant solution/reservoir oil)” value in data set [1] was 0.15 mN/m. In addition, the “Δρ (change in density)” value in data set [2] turned out to be 0.382 g/mL.
Turning to `CCCCCCCCCCCCCCCC[N+](C)(C)C.[Cl-]` [CTAC, Cetyltrimethyl ammonium chloride], the “γ (interfacial tension surfactant solution/reservoir oil)” value in data set [1] was determined as 0.11 mN/m. Further, in data set [3], the CMC result is reported as “about 0.003 wt %”. In addition, the “Δρ (change in density)” value in data set [2] was 0.3834 g/mL.
`CCCCCCCCCCCC[N+](C)(C)C.[Br-]` [DTAB, Dodecyltrimethylammonium bromide]: the “γ (interfacial tension surfactant solution/reservoir oil)” value in data set [1] turned out to be 1.1 mN/m. For the same compound, in data set [2], the “Δρ (change in density)” value was determined as 0.3835 g/mL.
Turning to `CCCCCCCCCCCC[N+](C)(C)C.[Cl-]` [DTAC, Dodecyltrimethylammonium chloride], the “γ (interfacial tension surfactant solution/reservoir oil)” value in data set [1] was 1.6 mN/m. In data set [3], the CMC result is “about 0.005 wt %”. Further, in data set [2], the “Δρ (change in density)” value came out at 0.3826 g/mL.
For the compound `CCCCCCCC[N+](C)(C)C.[Br-]` [TOAB, Trimethyloctylammonium bromide], in data set [4], the “solution clarity/cloudiness (in words)” value is recorded as “already clear at ambient conditions”. Besides, in data set [5], the “phase behavior (in words)” value is recorded as “less influenced by temperature”. Moreover, the “IFT reduction relative to the blank brine” value in data set [6] is “about 7 mN/m”. In data set [1], the “γ (interfacial tension surfactant solution/reservoir oil)” value is 8.4 mN/m. In addition, the “Δρ (change in density)” value in data set [2] worked out at 0.3823 g/mL.
As for `CCCCCCCC[N+](C)(C)C.[Cl-]` [TOAC, Trimethyloctylammonium chloride], in data set [4], the “solution clarity/cloudiness (in words)” value is “clearest”. Also, in data set [5], the “phase behavior (in words)” value is given as “less influenced by temperature”. Further, in data set [1], the “γ (interfacial tension surfactant solution/reservoir oil)” value was found to be 5.05 mN/m. Moreover, the “Δρ (change in density)” value in data set [2] was 0.3822 g/mL.
Take `CCCCCCCCCCCCCCCCCC[N+](C)(C)C.[Br-]` [TODAB, Trimethyloctadecylammonium bromide]: in data set [5], the “phase behavior (in words)” value is listed as “poor solubility”; the “volume of surfactant phase formed between oil and brine” value is on record as “about 0.1 cm^3”. Also, the “γ (interfacial tension surfactant solution/reservoir oil)” value in data set [1] came to 0.07 mN/m. Also, in data set [2], the “Δρ (change in density)” value is 0.3831 g/mL.
Turning to `CCCCCCCCCCCCCCCCCC[N+](C)(C)C.[Cl-]` [TSAC, Trimethyloctadecylammonium chloride], the “solution clarity/cloudiness (in words)” value in data set [4] is “cloudiest”. In addition, the “temperature at which the solution became and stayed clear” value in data set [4] (heated while stirring, ambient pressure) was “about 75 °C”. Besides, in data set [5], the “phase behavior (in words)” value is given as “poor solubility”; the “volume of surfactant phase formed between oil and brine” value was “about 0.1 cm^3”. Further, the CMC entry in data set [3] was “about 0.001 wt %”. The Krafft point result in data set [7] is “about 40 °C”. Also, the “Δρ (change in density)” value in data set [2] amounted to 0.3829 g/mL.
